These results are taken from article PMC11995724, “Antibiotic target discovery by integrated phenotypic and activity-based profiling of electrophilic fragments” (Cell chemical biology, 2025).

Molecules are shown by their SMILES. Structures can show the parent of a compound that is named as a salt.

The nature of the data set: in vitro. The conditions noted are these: human, hek293t cells.
In the case of `CC(Cl)C(=O)NC1CCN(S(C)(=O)=O)C1` (stereo not shown) [7-I15, 2-chloro-N-(1-methanesulfonylpyrrolidin-3-yl)propanamide], the viability at 48 h, 25 µM was found to be 94.9%.

`CC(=O)N1CCC(NC(=O)C(C)Cl)c2ccc(F)cc2C1` (stereo not shown) [7-I16, N-(2-acetyl-8-fluoro-2,3,4,5-tetrahydro-1H-2-benzazepin-5-yl)-2-chloropropanamide]: the viability at 48 h, 25 µM was 92.3%.

Turning to `CC(Cl)C(=O)NCc1ccn(CC(F)F)n1` (stereo not shown) [7-I17, 2-chloro-N-{[1-(2,2-difluoroethyl)-1H-pyrazol-3-yl]methyl}propanamide], the viability at 48 h, 25 µM is 88.7%.

For the compound `CC(Cl)C(=O)N1CCC(Oc2cnc3ccccc3n2)CC1` (stereo not shown) [7-I18, 2-chloro-1-[4-(quinoxalin-2-yloxy)piperidin-1-yl]propan-1-one], the viability at 48 h, 25 µM worked out at 68.7%.

With `CC(Cl)C(=O)N1CCc2ncccc2C1` (stereo not shown) [7-I19, 2-chloro-1-(5,6,7,8-tetrahydro-1,6-naphthyridin-6-yl)propan-1-one], the viability at 48 h, 25 µM was 98.1%.

Regarding `CC(Cl)C(=O)Nc1ccc(C(=O)N(C)C2CCCN(C)C2)cc1` (stereo not shown) [7-I20, 4-(2-chloropropanamido)-N-methyl-N-(1-methylpiperidin-3-yl)benzamide], the viability at 48 h, 25 µM is 76.4%.

`CC(Cl)C(=O)NCCc1ccnn1C` (stereo not shown) [7-I21, 2-chloro-N-[2-(1-methyl-1H-pyrazol-5-yl)ethyl]propanamide]: the viability at 48 h, 25 µM is 92.3%.

In the case of `CC(Cl)C(=O)N1CCN(Cc2ccnn2C)CC1` (stereo not shown) [7-I22, 2-chloro-1-{4-[(1-methyl-1H-pyrazol-5-yl)methyl]piperazin-1-yl}propan-1-one], the viability at 48 h, 25 µM is 99.9%.

For `Cc1csc(C2(NC(=O)CCl)CCOCC2)n1` [7-J03, 2-chloro-N-[4-(4-methyl-1,3-thiazol-2-yl)oxan-4-yl]acetamide], the viability at 48 h, 25 µM came out at 0.732%.

Take `Cc1ccccc1C(NC(=O)CCl)c1ccccc1C` [7-J04, N-[bis(2-methylphenyl)methyl]-2-chloroacetamide]: the viability at 48 h, 25 µM stood at 0.589%.

On to `CC(Cl)C(=O)NCC(c1ccc(Cl)cc1)n1cccn1` (stereo not shown) [7-J05, 2-chloro-N-[2-(4-chlorophenyl)-2-(1H-pyrazol-1-yl)ethyl]propanamide], for which the viability at 48 h, 25 µM came to 100%.

Regarding `O=C(CCl)NC1CN(c2ccc(C(F)(F)F)cc2)C1` [7-J06, 2-chloro-N-{1-[4-(trifluoromethyl)phenyl]azetidin-3-yl}acetamide], the viability at 48 h, 25 µM was found to be 0.892%.

Turning to `CC(Cl)C(=O)N1CCN(CC(F)(F)C(F)F)CC1` (stereo not shown) [7-J07, 2-chloro-1-[4-(2,2,3,3-tetrafluoropropyl)piperazin-1-yl]propan-1-one], the viability at 48 h, 25 µM worked out at 96.1%.

As for `O=C(CCl)NC1(c2nc(-c3ccccc3)c[nH]2)CCCC1` [7-J08, 2-chloro-N-[1-(4-phenyl-1H-imidazol-2-yl)cyclopentyl]acetamide hydrochloride], the viability at 48 h, 25 µM came to 0.673%.

Regarding `CC(Cl)C(=O)NCCCc1c[nH]c2ccc(F)cc12` (stereo not shown) [7-J09, 2-chloro-N-[3-(5-fluoro-1H-indol-3-yl)propyl]propanamide], the viability at 48 h, 25 µM is 96%.

Take `O=C(CCl)NC1CCCN(Cc2ccccc2)C1=O` (stereo not shown) [7-J10, N-(1-benzyl-2-oxopiperidin-3-yl)-2-chloroacetamide]: the viability at 48 h, 25 µM is 55.1%.

For the compound `CC(Cl)C(=O)NCC1CCN(C)c2ccccc21` (stereo not shown) [7-J11, 2-chloro-N-[(1-methyl-1,2,3,4-tetrahydroquinolin-4-yl)methyl]propanamide], the viability at 48 h, 25 µM amounted to 79.9%.

As to `CN(C)C(=O)C(CNC(=O)CCl)c1ccccc1` (stereo not shown) [7-J12, 3-(2-chloroacetamido)-N,N-dimethyl-2-phenylpropanamide], the viability at 48 h, 25 µM is 1.26%.

Regarding `Cc1ccc(NC(=O)C2(CNC(=O)C(C)Cl)CCCC2)cc1C` (stereo not shown) [7-J13, 1-[(2-chloropropanamido)methyl]-N-(3,4-dimethylphenyl)cyclopentane-1-carboxamide], the viability at 48 h, 25 µM came to 108%.
